{"source": "patent US6375672B1", "about": "“Method for controlling the chemical and heat induced responses of collagenous materials” (Board of Trustees of Michigan State University, priority 1999, dated 2002)", "test_system": "rabbit patellar tendon specimen", "assay": "post-denaturation tension test (stiffness) of heat-contracted tendon specimens treated with cross-linking agent", "design": "species or system New Zealand rabbit", "conditions": "FIG. 7; for stiffness increase when compared to a control without the cross-linking: then 0.1% glutaraldehyde for 15 minutes", "procedure": "The achieve the above objectives, the present invention provides an in vitro testing system for developing procedures for treating joint instability problems and loose skin problems. In particular, the testing system performs a tensile test, which is a test wherein a constant rate of elongation is applied on the specimen and the resultant load is measured by a load cell; a viscoelasticity test, which is a test to determine the viscoelastic properties of the specimen; and, calculates stiffness which is the slope of elongation versus load graph. The testing system 110 is illustrated in FIG. 4 and consists of a hydrothermy cabin 120 that is attached to a universal testing machine 130, which is used to perform isothermal and isotonic heating of specimens. The hydrothermy cabin 120 provides a chamber which allows fluid to be circulated around all surfaces of specimen 123 held in between lower grip 124 and upper grip 125. Specimen 123 is secured to lower grip 124 using a fixture which is designed to keep specimen 123 at an angle to mimic anatomical loading while compensating for the offset created by the angle so as to ensure a straight line of loading. Specimen 123 is secured to upper grip 125 by a wedge-shaped fixture which is composed of two universal joints to give rotational freedom to specimen 123 to ensure that a purely uniaxial stress is created on specimen 123. The denaturation of the collagen in specimen 123 is produced by providing to hydrothermy cabin 120 high temperature saline solution 150 contained in reservoir 151 by means of high temperature saline solution supply line 152. […] The materials testing machine 130 performs a tensile test wherein a constant rate of eleongation is applied to specimen 123 and the resultant load is measured by a load cell (not shown); a viscoelasticity test wherein a constant load is applied on specimen 123 and the resultant elongation as a function of time is measured (creep test) or a constant elongation is imposed and the resulting load is measured (stress relaxation test) as a function of time. […]", "data": [{"smiles": "O=CCCCC=O", "note": "[glutaraldehyde]", "values": [{"measurement": "stiffness of the specimen", "setting": "15 minutes of 0.1% glutaraldehyde following heat treatment of either 75° C. or 80° C.", "result": "increased"}, {"measurement": "stiffness increase when compared to a control without the cross-linking", "setting": "heat treatment 75° C., 0.5 MPa load", "result": "more than 220%"}, {"measurement": "stiffness increase when compared to a control without the cross-linking", "setting": "heat treatment 80° C., 0.6 MPa load", "result": "more than 130%"}]}]}
